{
  "source": "patent US6723737B1",
  "about": "(priority 1999, dated 2004)",
  "origin": "cited, not measured here",
  "key": {"[1]": {"test_system": "genetically obese experimental animals"}, "young men": {"test_system": "young men", "conditions": "after caffeine ingestion, statistically significant"}},
  "data": [
    {"smiles": "Cn1c(=O)c2[nH]cnc2n(C)c1=O", "note": "[theophylline, 1,3-dimethylxanthine]", "values": [
      {"measurement": "weight loss", "setting": "[1]", "value": "did not produce weight loss"}
    ]},
    {"smiles": "Cn1c(=O)c2c(ncn2C)n(C)c1=O", "note": "[caffeine, 1,3,7-trimethylxanthine]", "values": [
      {"measurement": "weight loss", "setting": "[1]", "value": "did not produce weight loss"},
      {"measurement": "levels of free fatty acids", "setting": "young men", "value": "increased the levels of free fatty acids"}
    ]}
  ]
}
